What was measured:
[1] = system: PDGFRβ expression in human NK cells; assay: Cytokine-induced PDGFRβ expression in purified human NK cells, flow cytometry; assay type: cell-based; settings: 24 h
Excerpt: Data shown are the percentages of PDGFRβ^+ NK cells among total NK cells (n=5). […] Bar=20 μm. […] Data represent three independent experiments. Data shown are means SD.
FIGS. 7A-7F. […] Data shown are representative histograms and mean fluorescence intensity (MFI) of PDGFRα. […] Expression levels of PDGFRβ were examined by flow cytometry (n=6). […] Data shown are the percentages of PDGFRβ^+ NK cells among total NK cells (n=5). […] Data shown are representative histograms with MFI of PDGFRβ expression. (F) Expression levels of PDGFRβ on NK cells from IL-15 transgenic (Tg) mice were determined by flow cytometry. Data shown are representative histograms. Data represent three independent experiments.
NK cells were cultured in RPMI 1640 with 10% heat-inactivated FBS (Gibco) at 37° C. in a 5% CO2 humidified incubator. For NK cell transduction, PDGFRB cDNA ORF clone (Cat: HG10514-G) was purchased from Sino Biological and cloned into pCDH-CMV-MCS-EF1-copGFP lentivirus vector (System Biosciences). To produce lentivirus, we transfected the lentiviral transfer vector DNA, together with psPAX2 packaging (Addgene) and pMD2.G envelope plasmid DNA (Addgene), into HEK293T cells; using a polyethyenimine (PEI) transfection protocol (Polysciences). Concentrated lentivirus was added to primary NK cells cultured in RPMI 1640 medium supplemented with 10% FCS and 10 jig/mL polybrene with 2,000×g centrifugation for 2 h. Cells were cultured for an additional 48 h. […] The cells were then collected for flow cytometry analysis. For the inhibition assay, NK cells were pretreated with the indicated inhibitors for 1 h, washed twice with RPMI 1640. and then treated with IL-15 for 24 h.
Cells were stained with the indicated cell-surface markers and/or fixed/permeabilized using a Fixation/Permeabilization Kit (eBioscience). For intracellular staining of IFN-γ and PDGF-D, 5 μg/ml Brefeldin A (BioLegend) was added for 4 h before cell harvest. Intracellular staining of Ki67 was performed by fixing and permeabilizing with the Foxp3/Transcription Factor Staining Kit (eBioscience).

[2] = system: NOD/SCID/IL-2rg (NSG) mice; assay: PDGF-D injection after NK cell adoptive transfer into NSG mice, annexin V and Ki-67; settings: in vivo, PDGF-D 1 μg per mouse i.v. daily for 3 days
Description: FIGS. 6A-6M. IL-15 maintains NK cell survival through a PDGF-D-PDGFRβ autocrine pathway. (A) 1×10^5 primary NK cells were cultured in vitro for 7 days in the presence of IL-15 (10 ng/ml) and PDGF-D (50 ng/ml). Cells were counted on days 3, 5, and 7 (n=3). (B) 1×10^5 primary NK cells were cultured in vitro for 7 days in the presence of IL-15 (10 ng/ml) and anti-PDGF-D (10 βg/ml) or control IgG (10 μg/ml). Cells were counted on days 3, 5, and 7 (n=3). […] The cells were counted by trypan exclusion assay on days 3, 5, and 7 (n=3). (D) 1×10^5 primary NK cells were cultured in vitro for 7 days in the presence of IL-15 (10 ng/ml) and PDGF-D (50 ng/ml) as well as anti-PDGFRβ (10 μg/ml). Cells were counted by trypan exclusion assay on days 3, 5, and 7 (n=3). (E) 1×10^5 primary NK cells were cultured in vitro for 7 days in the presence of IL-15 (10 ng/ml) and PDGF-D (50 ng/ml) as well as anti-NKp44 (10 μg/ml). Cells were counted by trypan exclusion assay on days 3, 5, and 7 (n=3). (F-I) Primary NK cells were cultured in the presence of IL-15 (10 ng/ml) and PDGF-D (50 ng/ml) as well as anti-NKp44 (10 μg/ml) or anti-PDGFRβ (10 Kg/ml) for 48 h. The cultured NK cells were then harvested for immunoblotting to determine protein levels of BCL-2, BCL-XL, and MCL-1 (n=3). […] Cell apoptosis and proliferation were analyzed by annexin V staining (J) and Ki-67 staining (K), respectively. […]

Row | Substance | PDGFRβ expression ([1]; cytokine 10 ng/ml, IL-15 effect dose- and time-dependent) | PDGFRβ expression in CD56^bright NK cells ([1]; sorted CD56^bright NK cells, IL-15 10 ng/ml) | PDGFRβ expression in CD56^dim NK cells ([1]; sorted CD56^dim NK cells, IL-15 10 ng/ml) | NK cell proliferation (Ki67) [2] | apoptosis of PDGFRβ^+ NK cells (annexin V) ([2]; peripheral blood)
1 | IL-15: recombinant human IL-15 (200-15); recombinant murine IL-15 in the mouse NK cell test | induced robust expression of PDGFRβ | not CD56^bright NK cells | induced PDGFRβ expression only in CD56^dim NK cells |  | 
2 | PDGF-D: recombinant human PDGF-DD (1159-SB-025), R&D Systems |  |  |  | did not affect NK cell proliferation | inhibited apoptosis

— patent publication US20250017964A1, “ENGINEERING OR INDUCING PDGF AND/OR PDGFR SIGNALING TO ENHANCE NK CELL THERAPY” (City of Hope, priority 2021, published 2025)
